# PMC4076210, “Discovery of Novel AKT Inhibitors with Enhanced Anti-Tumor Effects in Combination with the MEK Inhibitor” (PLoS ONE, 2014)
# pIC50: −log10 of the molar value.
# System: solid tumor cell lines
# Assay: 3-day proliferation assay (CellTiter-Glo)
# Format: cell-based, human
# Settings: for pIC50: Homo sapiens
# Method: Various tumor cell lines were obtained from different sources including; the American Type Cell Culture Collection, the Developmental Therapeutics Program, the National Cancer Institute, the German Resource Center for Biological Material and the European Collection of Animal Cell Cultures. Cell lines were typically grown in […] containing 10% FBS. Some cell lines were grown in media specified by the vendor. A 3-day proliferation assay using CellTiter-Glo (CTG, Promega) was performed to measure the growth inhibition by the compounds at 0–30 µM. Cell growth was determined relative to untreated (DMSO) controls. EC50's were calculated from inhibition curves using a 4- or 6-parameter fitting algorithm in the Assay Client application.
smiles,measurement,setting,value
Cn1ncc(Cl)c1-c1cc(C(=O)N[C@H](CN)Cc2ccc(F)c(F)c2)oc1Cl [GSK2141795],solid tumor cell lines with EC50<1 µM,"178 cell lines, 3 days, CTG",36%
same,pIC50,"22Rv1, 22Rv1, Prostate",6.61
same,pIC50,"647-V, 647V, Bladder",5.12
same,pIC50,"786-0, 786-O, Kidney",6.24
same,pIC50,"A 172, A172, Brain",5.24
same,pIC50,"A204, A204, Sarcoma",5.97
same,pIC50,"A549, A549, Lung",5.81
same,pIC50,"A673, A673, Sarcoma",5.47
same,pIC50,"A2780, A2780, Ovary",5.64
same,pIC50,"A-375, A375, Skin",4.86
same,pIC50,"A-427, A427, Lung",5.71
same,pIC50,"ACHN, Kidney",5.83
same,pIC50,"AGS, Stomach",6.31
same,pIC50,"BE(2)-C, BE2C, Neuroblastoma",6.18
same,pIC50,"BFTC-905, BFTC905, Bladder",5.86
same,pIC50,"BT-20, BT20, Breast",7.10
same,pIC50,"BXPC-3, BXPC3, Pancreas",4.77
same,pIC50,"C3A, Liver",6.02
same,pIC50,"C32TG, Skin",6.27
same,pIC50,"C-33-A, C-33A, Cervix",6.62
same,pIC50,"C-41, Cervix",4.81
same,pIC50,"CAL-27, CAL27, Head & Neck",5.18
same,pIC50,"CAL-62, CAL62, Thyroid",5.09
same,pIC50,"CCF-STTG1, CCFSTTG1, Brain",6.79
same,pIC50,"CGTH-W-1, CGTHW1, Thyroid",5.68
same,pIC50,"CHL-1, CHL1, Skin",5.52
same,pIC50,"CHP-212, CHP212, Neuroblastoma",6.23
same,pIC50,"COLO 205, COLO205, Colon",5.43
same,pIC50,"COLO 320DM, COLO320DM, Colon",6.16
same,pIC50,"COLO 704, COLO704, Ovary",6.98
same,pIC50,"COR-L23, CORL23, Lung",5.26
same,pIC50,"Calu-3, CALU3, Lung",6.07
same,pIC50,"Calu-6, CALU6, Lung",5.43
same,pIC50,"Caov-3, CAOV3, Ovary",5.37
same,pIC50,"Capan-2, Capan2, Pancreas",5.37
same,pIC50,"DBTRG-05MG, DBTRG05MG, Brain",5.43
same,pIC50,"DKMG, Brain",6.02
same,pIC50,"DLD-1, DLD1, Colon",5.23
same,pIC50,"DU-145, DU145, Prostate",5.46
same,pIC50,"DU-4475, DU4475, Breast",5.75
same,pIC50,"DoTc2-4510, DoTc24510, Cervix",5.86
same,pIC50,"EFM-19, EFM19, Breast",7.31
same,pIC50,"EKVX, Lung",5.41
same,pIC50,"ES2, Ovary",5.76
same,pIC50,"FaDu, Head & Neck",5.04
same,pIC50,"G-401, G401, Head & Neck",6.33
same,pIC50,"GCT, Sarcoma",5.49
same,pIC50,"H4, Brain",5.79
same,pIC50,"HCC70, HCC70, Breast",7.42
same,pIC50,"HCC1954, HCC1954, Breast",6.93
same,pIC50,"HCC 2998, HCC2998, Colon",5.85
same,pIC50,"HCT-116, HCT116, Colon",5.40
same,pIC50,"HMCB, Skin",5.55
same,pIC50,"HN5, Head & Neck",5.70
same,pIC50,"HOS, Sarcoma",5.93
same,pIC50,"HPAF-II, HPAFII, Pancreas",5.36
same,pIC50,"HT3, Cervix",5.84
same,pIC50,"HT-29, HT29, Colon",5.99
same,pIC50,"HT-1080, HT1080, Sarcoma",5.46
same,pIC50,"HUVEC, Normal Endothelial",5.50
same,pIC50,"HeLa, Cervix",5.24
same,pIC50,"Hep3B, Liver",6.81
same,pIC50,"Hs746T, Stomach",5.96
same,pIC50,"IGROV-1, IGROV1, Ovary",7.68
same,pIC50,"J82, Bladder",6.11
same,pIC50,"KATO III, KATOIII, Stomach",6.59
same,pIC50,"KHOS-240S, KHOS240S, Sarcoma",5.13
same,pIC50,"KM12, KM12, Colon",5.49
same,pIC50,"KPL-1, KPL1, Breast",5.86
same,pIC50,"KYSE-30, KYSE30, Oesophagus",5.49
same,pIC50,"LNCaP, Prostate",7.24
same,pIC50,"LS174T, Colon",5.87
same,pIC50,"LS-1034, LS1034, Colon",5.79
same,pIC50,"M14, Skin",5.73
same,pIC50,"MC-IXC, MCIXC, Neuroblastoma",6.55
same,pIC50,"MCF7, MCF7, Breast",6.86
same,pIC50,"MCF-10A, MCF10A, Normal Breast",6.28
same,pIC50,"MDA-MB-175-VII, MDAMB175-VII, Breast",7.07
same,pIC50,"MDA-MB-231, MDAMB231, Breast",5.12
same,pIC50,"MDA-MB-453, MDAMB453, Breast",6.32
same,pIC50,"MDA-MB-468, MDAMB468, Breast",6.43
same,pIC50,"MES-SA, MESSA, Sarcoma",6.47
same,pIC50,"MIA PaCa-2, MiaPaCa, Pancreas",6.06
same,pIC50,"NCI-H69, NCIH69, Lung",6.19
same,pIC50,"NCI-H82, NCIH82, Lung",4.82
same,pIC50,"NCI-H146, NCIH146, Lung",5.11
same,pIC50,"NCI-H157, NCIH157, Lung",5.87
same,pIC50,"NCI-H187, NCIH187, Lung",6.94
same,pIC50,"NCI-H209, NCI-H209, Lung",6.07
same,pIC50,"NCI-H226, NCIH226, Lung",5.56
same,pIC50,"NCI-H292, NCIH292, Lung",5.54
same,pIC50,"NCI-H322, NCIH322, Lung",5.33
same,pIC50,"NCI-H358, NCI-H358, Lung",6.20
same,pIC50,"NCI-H446, NCIH446, Lung",6.59
same,pIC50,"NCI-H460, NCIH460, Lung",5.71
same,pIC50,"NCI-H508, NCIH508, Lung",6.80
same,pIC50,"NCI-H520, NCIH520, Lung",6.70
same,pIC50,"NCI-H630, NCIH630, Lung",5.51
same,pIC50,"NCI-H661, NCIH661, Lung",5.48
same,pIC50,"NCI-H716, NCIH716, Colon",5.78
same,pIC50,"NCI-H747, NCIH747, Lung",6.32
same,pIC50,"NCI-H1563, NCIH1563, Lung",6.85
same,pIC50,"NCI-H1792, NCIH1792, Lung",5.55
same,pIC50,"NCI-H2030, NCIH2030, Lung",5.50
same,pIC50,"NCI-H2052, NCIH2052, Lung",5.80
same,pIC50,"NCI-H2081, NCIH2081, Lung",6.29
same,pIC50,"NCI-H2122, NCIH2122, Lung",5.72
same,pIC50,"NCI-H2170, NCI-H2170, Lung",5.50
same,pIC50,"NCI-H2228, NCIH2228, Lung",6.39
same,pIC50,"NCI-N87, NCIN87, Stomach",6.25
same,pIC50,"NCI/ADR-RES, NCIADRRES, Breast",5.10
same,pIC50,"OE19, OE19, Oesophagus",5.64
same,pIC50,"OE21, OE21, Oesophagus",6.95
same,pIC50,"OE33, OE33, Oesophagus",5.37
same,pIC50,"OV-90, OV90, Ovary",5.68
same,pIC50,"OVCAR-3, OVCAR3, Ovary",5.50
same,pIC50,"OVCAR-4, OVCAR4, Ovary",4.53
same,pIC50,"OVCAR-5, OVCAR5, Ovary",5.28
same,pIC50,"PANC-1, Panc1, Pancreas",5.65
same,pIC50,"PC3, Prostate",5.86
same,pIC50,"PL45, PL45, Pancreas",5.21
same,pIC50,"Panc 02.03, Panc02.03, Pancreas",4.97
same,pIC50,"RD, Sarcoma",5.20
same,pIC50,"RD-ES, RDES, Sarcoma",6.09
same,pIC50,"RKO, Colon",6.17
same,pIC50,"SAOS-2, SAOS2, Sarcoma",5.63
same,pIC50,"SCC12, SCC12, Head & Neck",5.89
same,pIC50,"SCC-9, SCC9, Head & Neck",5.62
same,pIC50,"SCC-13, SCC-13, Head & Neck",4.63
same,pIC50,"SCC-15, SCC15, Head & Neck",5.70
same,pIC50,"SCC-25, SCC-25, Head & Neck",5.61
same,pIC50,"SCLC3, Lung",7.27
same,pIC50,"SF-295, SF295, Brain",6.43
same,pIC50,"SF-539, SF539, Brain",6.41
same,pIC50,"SH4, Skin",5.26
same,pIC50,"SHP77, SHP77, Lung",5.51
same,pIC50,"SJRH30, SJRH30, Sarcoma",6.55
same,pIC50,"SK-BR-3, SKBR3, Breast",7.02
same,pIC50,"SK-LMS-1, SKLMS1, Sarcoma",5.23
same,pIC50,"SK-MEL-1, SKMEL1, Skin",5.60
same,pIC50,"SK-MEL-28, SKMEL28, Skin",5.79
same,pIC50,"SK-MES-1, SKMES-1, Lung",5.66
same,pIC50,"SK-N-AS, SKNAS, Neuroblastoma",5.47
same,pIC50,"SK-OV-3, SKOV3, Ovary",6.36
same,pIC50,"SK-UT-1, SKUT1, Sarcoma",6.69
same,pIC50,"SKNF1, Neuroblastoma",6.62
same,pIC50,"SN12C, Kidney",4.95
same,pIC50,"SNB-75, SNB75, Brain",6.35
same,pIC50,"SNU1, SNU1, Stomach",5.85
same,pIC50,"SNU-5, SNU5, Stomach",5.11
same,pIC50,"SNU-16, SNU16, Stomach",5.14
same,pIC50,"SNU-398, SNU398, Liver",4.87
same,pIC50,"SNU-449, SNU449, Liver",5.22
same,pIC50,"SW48, SW48, Colon",6.48
same,pIC50,"SW480, SW480, Colon",4.99
same,pIC50,"SW579, SW579, Thyroid",6.02
same,pIC50,"SW684, SW684, Sarcoma",6.47
same,pIC50,"SW756, SW756, Cervix",5.08
same,pIC50,"SW780, SW780, Bladder",5.30
same,pIC50,"SW872, SW872, Sarcoma",6.54
same,pIC50,"SW900, SW900, Lung",5.09
same,pIC50,"SW1088, SW1088, Brain",6.27
same,pIC50,"SW1417, SW1417, Colon",5.87
same,pIC50,"SW1783, SW1783, Brain",6.74
same,pIC50,"SW1990, SW1990, Pancreas",5.04
same,pIC50,"Skut1B, Sarcoma",8.00
same,pIC50,"T47D, T-47D, Breast",7.20
same,pIC50,"T84, Colon",5.65
same,pIC50,"TE 381.T, TE381T, Sarcoma",6.08
same,pIC50,"TK-10, TK10, Kidney",5.48
same,pIC50,"U20S, Sarcoma",4.63
same,pIC50,"U138-MG, U138MG, Brain",5.93
same,pIC50,"U-87 MG, U87MG, Brain",5.48
same,pIC50,"U-251, U251, Brain",5.91
same,pIC50,"UACC-62, UACC62, Skin",5.91
same,pIC50,"UACC-257, UACC257, Skin",5.52
same,pIC50,"UMUC3, UMUC3, Bladder",5.23
same,pIC50,"YAPC, Pancreas",4.99
same,pIC50,"ZR-75-1, ZR75-1, Breast",7.48
